Three molecules from BindingDB's records for doi:10.1111/cbdd.12587 (Jiangnan University, 2015) can be followed below.

Structures are written as SMILES.

By IC50 is commonly meant the midpoint of a concentration-inhibition curve.

For the assay, the target named is T1, Tyrosine-protein phosphatase non-receptor type 1 (Homo sapiens, UniProt P18031).
T1 sequence (P18031 whole entry): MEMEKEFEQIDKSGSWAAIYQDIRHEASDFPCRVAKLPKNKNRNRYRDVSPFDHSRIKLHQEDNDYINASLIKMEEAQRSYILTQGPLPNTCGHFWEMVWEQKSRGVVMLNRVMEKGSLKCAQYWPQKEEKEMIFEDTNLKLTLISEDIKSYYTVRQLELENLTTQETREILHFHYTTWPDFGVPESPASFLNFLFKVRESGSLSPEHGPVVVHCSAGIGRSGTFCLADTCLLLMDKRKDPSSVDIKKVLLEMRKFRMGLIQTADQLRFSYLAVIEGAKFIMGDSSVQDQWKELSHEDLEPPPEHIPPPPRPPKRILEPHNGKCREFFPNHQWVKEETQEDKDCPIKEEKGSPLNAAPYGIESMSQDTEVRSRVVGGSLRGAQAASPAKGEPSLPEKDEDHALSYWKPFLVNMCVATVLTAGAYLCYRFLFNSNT
Kind of assay: Colorimetric Assay. The conditions noted are these: pH 6.5. On the procedure:
Briefly, the tested compounds were solubilized in DMSO and serially diluted into concentrations for the inhibitory test. The assays were carried out in a final volume of 100 µL containing 50 mmol/L MOPS, pH 6.5, 2 mmol/L pNPP, 21 nmol/L GST-PTP1B or GST-TCPTP, and 2% DMSO, and the catalysis of pNPP was continuously monitored on a SpectraMax 340 microplate reader at 405 nm for 3 min at 30 °C
The molecule `O=C(c1ccc(-c2ccc(C(=O)N3CCC4(CC3)CC(c3ccccc3)=NO4)cc2)cc1)N1CCC2(CC1)CC(c1ccccc1)=NO2` [Biphenyl-4,4'-diylbis((3-phenyl-1-oxa-2,8-diazaspiro[4.5]dec-2-en-8-yl)methanone) (6f)] displayed an IC50 of 2.87 µM. Consider `O=C(c1ccc(-c2ccc(C(=O)N3CCC4(CC3)CC(c3ccccc3F)=NO4)cc2)cc1)N1CCC2(CC1)CC(c1ccccc1F)=NO2` [Biphenyl-4,4'-diylbis((3-(2-fluorophenyl)-1-oxa-2,8-diazaspiro[4.5]dec-2-en-8-yl)methanone) (6g)], for which the IC50 worked out at 4.96 µM. The molecule `O=C(c1ccc(-c2ccc(C(=O)N3CCC4(CC3)CC(c3cccc(F)c3)=NO4)cc2)cc1)N1CCC2(CC1)CC(c1cccc(F)c1)=NO2` [Biphenyl-4,4'-diylbis((3-(3-fluorophenyl)-1-oxa-2,8-diazaspiro[4.5]dec-2-en-8-yl)methanone) (6h)] gave an IC50 of 5.33 µM.
